Assay results: the NIST ThermoML archive (doi:10.1016/j.jct.2019.03.040)

How the values were obtained:
[1] = molar heat capacity at constant pressure; details: 101.33 kPa, Liquid, Small sample (50 mg) DSC
[2] = Liquid; for thermal diffusivity: 101.33 kPa, Laser flash apparatus

CCOC(=O)CCC(C)=O [ethyl levulinate]
Details	Critical pressure [kPa]	Critical temperature [K]	molar heat capacity at constant pressure [J/K/mol]	thermal diffusivity [m2/s]
[1], 302.98 K	–	–	275.22	–
[1], 303.48 K	–	–	275.79	–
[1], 303.98 K	–	–	276.51	–
[1], 304.48 K	–	–	276.37	–
[1], 304.98 K	–	–	275.65	–
[1], 305.48 K	–	–	276.08	–
[1], 305.98 K	–	–	275.65	–
[1], 306.48 K	–	–	276.08	–
[1], 306.98 K	–	–	276.95	–
[1], 307.48 K	–	–	277.24	–
[1], 307.98 K	–	–	277.67	–
[1], 308.48 K	–	–	277.52	–
[1], 308.98 K	–	–	277.38	–
[1], 309.48 K	–	–	277.67	–
[1], 309.98 K	–	–	277.96	–
[1], 310.48 K	–	–	278.53	–
[1], 310.98 K	–	–	278.82	–
[1], 311.48 K	–	–	277.96	–
[1], 311.98 K	–	–	278.24	–
[1], 312.48 K	–	–	277.24	–
[1], 312.98 K	–	–	278.53	–
[1], 313.48 K	–	–	278.82	–
[1], 313.98 K	–	–	279.25	–
[1], 314.48 K	–	–	279.25	–
[1], 314.98 K	–	–	279.25	–
[1], 315.48 K	–	–	278.53	–
[1], 315.98 K	–	–	279.25	–
[1], 316.48 K	–	–	278.68	–
[1], 316.98 K	–	–	278.97	–
[1], 317.48 K	–	–	279.69	–
[1], 317.98 K	–	–	279.4	–
[1], 318.48 K	–	–	279.83	–
[1], 318.98 K	–	–	279.69	–
[1], 319.48 K	–	–	279.83	–
[1], 319.98 K	–	–	279.54	–
[1], 320.48 K	–	–	280.55	–
[1], 320.98 K	–	–	280.98	–
[1], 321.48 K	–	–	280.7	–
[1], 321.98 K	–	–	279.97	–
[1], 322.48 K	–	–	280.55	–
[1], 322.98 K	–	–	280.84	–
[1], 323.48 K	–	–	281.42	–
[1], 323.98 K	–	–	281.13	–
[1], 324.48 K	–	–	281.42	–
[1], 324.98 K	–	–	281.56	–
[1], 325.48 K	–	–	281.27	–
[1], 325.98 K	–	–	281.99	–
[1], 326.48 K	–	–	282.57	–
[1], 326.98 K	–	–	282.14	–
[1], 327.48 K	–	–	282.43	–
[1], 327.98 K	–	–	282.57	–
[1], 328.48 K	–	–	283.29	–
[1], 328.98 K	–	–	283.15	–
[1], 329.48 K	–	–	282.86	–
[1], 329.98 K	–	–	283.29	–
[1], 330.48 K	–	–	283.87	–
[1], 330.98 K	–	–	284.01	–
[1], 331.48 K	–	–	284.01	–
[1], 331.98 K	–	–	284.16	–
[1], 332.48 K	–	–	284.44	–
[1], 332.98 K	–	–	284.16	–
[1], 333.48 K	–	–	284.3	–
[1], 333.98 K	–	–	284.01	–
[1], 334.48 K	–	–	284.88	–
[1], 334.98 K	–	–	285.74	–
[1], 335.48 K	–	–	285.6	–
[1], 335.98 K	–	–	285.89	–
[1], 336.48 K	–	–	285.6	–
[1], 336.98 K	–	–	285.89	–
[1], 337.48 K	–	–	285.74	–
[1], 337.98 K	–	–	285.6	–
[1], 338.48 K	–	–	286.17	–
[1], 338.98 K	–	–	286.32	–
[1], 339.48 K	–	–	286.32	–
[1], 339.98 K	–	–	286.03	–
[1], 340.48 K	–	–	286.32	–
[1], 340.98 K	–	–	285.74	–
[1], 341.48 K	–	–	286.17	–
[1], 341.98 K	–	–	286.46	–
[1], 342.48 K	–	–	286.75	–
[1], 342.98 K	–	–	285.89	–
[1], 343.48 K	–	–	286.61	–
[1], 343.98 K	–	–	286.9	–
[1], 344.48 K	–	–	287.76	–
[1], 344.98 K	–	–	288.34	–
[1], 345.48 K	–	–	287.47	–
[1], 345.98 K	–	–	288.63	–
[1], 346.48 K	–	–	288.19	–
[1], 346.98 K	–	–	287.9	–
[1], 347.48 K	–	–	288.05	–
[1], 347.98 K	–	–	288.48	–
[1], 348.48 K	–	–	288.48	–
[1], 348.98 K	–	–	288.19	–
[1], 349.48 K	–	–	289.2	–
[1], 349.98 K	–	–	289.2	–
[1], 350.48 K	–	–	289.35	–
[1], 350.98 K	–	–	289.2	–
[1], 351.48 K	–	–	289.63	–
[1], 351.98 K	–	–	289.2	–
[1], 352.48 K	–	–	289.78	–
[1], 352.98 K	–	–	290.5	–
[1], 353.48 K	–	–	289.78	–
[1], 353.98 K	–	–	290.36	–
[1], 354.48 K	–	–	290.21	–
[1], 354.98 K	–	–	289.92	–
[1], 355.48 K	–	–	289.92	–
[1], 355.98 K	–	–	289.78	–
[1], 356.48 K	–	–	289.92	–
[1], 356.98 K	–	–	291.08	–
[1], 357.48 K	–	–	290.93	–
[1], 357.98 K	–	–	290.64	–
[1], 358.48 K	–	–	290.93	–
[1], 358.98 K	–	–	290.79	–
[1], 359.48 K	–	–	291.51	–
[1], 359.98 K	–	–	292.09	–
[1], 360.48 K	–	–	291.65	–
[1], 360.98 K	–	–	292.09	–
[1], 361.48 K	–	–	292.52	–
[1], 361.98 K	–	–	291.51	–
[1], 362.48 K	–	–	292.66	–
[1], 362.98 K	–	–	292.81	–
[1], 363.48 K	–	–	293.82	–
[1], 363.98 K	–	–	293.53	–
[1], 364.48 K	–	–	293.67	–
[1], 364.98 K	–	–	294.25	–
[1], 365.48 K	–	–	294.39	–
[1], 365.98 K	–	–	295.4	–
[1], 366.48 K	–	–	294.54	–
[1], 366.98 K	–	–	295.83	–
[1], 367.48 K	–	–	295.55	–
[1], 367.98 K	–	–	295.98	–
[1], 368.48 K	–	–	295.83	–
[1], 368.98 K	–	–	296.84	–
[1], 369.48 K	–	–	296.84	–
[1], 369.98 K	–	–	296.27	–
[1], 370.48 K	–	–	296.99	–
[1], 370.98 K	–	–	296.27	–
[1], 371.48 K	–	–	296.55	–
[1], 371.98 K	–	–	296.84	–
[1], 372.48 K	–	–	296.84	–
[1], 372.98 K	–	–	296.84	–
[1], 373.48 K	–	–	296.99	–
[1], 373.98 K	–	–	297.13	–
[2], 303.15 K	–	–	–	7.9e-08
[2], 313.15 K	–	–	–	7.8e-08
[2], 323.15 K	–	–	–	7.7e-08
[2], 333.15 K	–	–	–	7.6e-08
[2], 343.15 K	–	–	–	7.5e-08
[2], 353.15 K	–	–	–	7.4e-08
[2], 363.15 K	–	–	–	7.25e-08
[2], 373.15 K	–	–	–	7.15e-08
[2], Resistive pulse heating	2970	669	–	–
